Results from patent US5849802A, “Fungicidal spirocyclic amines” (American Cyanamid Company, priority 1996, dated 1998).

Experiments:
Rhizoctonia solani = experiment: In vitro fungicidal activity: growth inhibition (RHIZ SO); format: cell-based; conditions: 25 ppm, 3-7 days at 22° C., nutrient broth; also: ranges in brackets are in %
Experimental: (§1) Test compounds are dissolved in acetone then diluted with deionize water (9 parts water: 1 part acetone), and dispersed into cell well plates containing a suspension of ground fungal mycelium in a nutrient broth resulting in a final concentration of 25 ppm of the test compound. Assay plates are incubated for 3-7 days at 22° C. Growth inhibition is measured visually and is rated using the following scale: […]

Venturia inaequalis = experiment: In vivo fungicidal activity: Apple Scab (AS); conditions: 200 ppm, sprayed before inoculation; also: ranges in brackets are in %
[1] = tested on: Pyricularia grisea f. sp. oryzae; format: in vivo; conditions: 200 ppm, sprayed before inoculation, Rice Blast
Pythium ultimum = experiment: In vitro fungicidal activity: growth inhibition (PYTH UL); format: cell-based; conditions: 25 ppm, 3-7 days at 22° C., nutrient broth; also: ranges in brackets are in %
Experimental: as §1

[2] = tested on: Erysiphe graminis f. sp. tritici; experiment: In vivo fungicidal activity: Wheat Powdery Mildew (WPM); conditions: 200 ppm, sprayed before inoculation; also: ranges in brackets are in %
Plasmopara viticola = experiment: In vivo fungicidal activity: Grape Downy Mildew (GDM); conditions: 200 ppm, sprayed before inoculation; also: ranges in brackets are in %
Alternaria solani = experiment: In vivo fungicidal activity: Tomato Early Blight (TEB); conditions: 200 ppm, sprayed before inoculation; also: ranges in brackets are in %
Septoria nodorum = experiment: In vivo fungicidal activity: Wheat Septoria nodorum Blotch (WSN); conditions: 200 ppm, sprayed before inoculation
Experimental: Test compounds are dissolved in acetone and diluted with deionized water (95 parts water to 5 parts acetone) containing 0.05% TWEEN 20®, a polyoxyethylene sorbitan monolaurate surfactant manufactured by Atlas Chemical Industries, to give a concentration of 200 ppm.
The plants are sprayed with the test solutions, dried and inoculated with fungi later the same day. When disease symptom development is optimal, the plants are rated for disease control according to the rating scale shown below. Each test contains inoculated treated plants, inoculated untreated plants and a inoculated plants treated with reference fungicides.

[3] = tested on: Pseudocercosporella herpotrichoides; experiment: In vitro fungicidal activity: growth inhibition (PSDC HE); format: cell-based; conditions: 25 ppm, 3-7 days at 22° C., nutrient broth; also: ranges in brackets are in %
Experimental: as §1

[4] = tested on: Fusarium oxysporium f. sp. cucumerinum; experiment: In vitro fungicidal activity: growth inhibition (FUS OXC); format: cell-based; conditions: 25 ppm, 3-7 days at 22° C., nutrient broth; also: ranges in brackets are in %
Experimental: as §1

Cercospora beticola = experiment: In vivo fungicidal activity: Sugar Beet Cercospora (SBC); conditions: 200 ppm, sprayed before inoculation; also: ranges in brackets are in %
Botrytis cinerea = experiment: In vivo fungicidal activity: Pepper Botrytis (PB); conditions: 200 ppm, sprayed before inoculation; also: ranges in brackets are in %

Row | SMILES | growth inhibition rating, RHIZ SO (Rhizoctonia solani) | disease control rating, AS (Venturia inaequalis) | disease control rating, RB [1] | growth inhibition rating, PYTH UL (Pythium ultimum) | disease control rating, WPM [2] | disease control rating, GDM (Plasmopara viticola) | disease control rating, TEB (Alternaria solani) | disease control rating, WSN (Septoria nodorum) | growth inhibition rating, PSDC HE [3] | growth inhibition rating, FUS OXC [4] | disease control rating, SBC (Cercospora beticola) | disease control rating, PB (Botrytis cinerea)
1 | CC1CCN(C2CCC3(CCC(C(C)(C)C)CC3)C2)CC1 (stereo not drawn) [Example 1] | 9 (100) | 6 (75-89) | 0 (0) | 7 (90-99) | 7 (90-95) | 9 (100) | 0 (0) | 7 (90-95) | 7 (90-99) | 0 (0) | 6 (75-89) | 8 (96-99)
2 | CCCCC(CC)NC1CCC2(CCC(C(C)(C)C)CC2)C1 (stereo not drawn) [Example 2] | 7 (90-99) | 8 (96-99) | 0 (0) | 9 (100) | 8 (96-99) | 8 (96-99) | 0 (0) | 0 (0) | 9 (100) | 0 (0) | 4 (45-59) | 9 (100)
3 | CC(C)(C)C1CCC2(CCC(NC3CCCCC3)C2)CC1 (stereo not drawn) [Example 3] | 0 (0) | 8 (96-99) | 0 (0) | 1 (1-29) | 8 (96-99) | 5 (60-74) | 8 (96-99) | 8 (96-99) | 0 (0) | 0 (0) | 6 (75-89) | 9 (100)
4 | C[C@@H]1CN(C2CCC3(CCC(C(C)(C)C)CC3)C2)C[C@H](C)O1 (stereo partly drawn) [Example 4] | 0 (0) | 0 (0) | 0 (0) | 0 (0) | 9 (100) | 0 (0) | 0 (0) | 7 (90-95) | 0 (0) | 0 (0) | 7 (90-95) | 9 (100)
5 | CC1CC(C)CN(C2CCC3(CCC(C(C)(C)C)CC3)C2)C1 (stereo not drawn) [Example 5] | 0 (0) | 6 (75-89) | 0 (0) | 0 (0) | 8 (96-99) | 5 (60-74) | 0 (0) | 4 (45-59) | 0 (0) | 0 (0) | 7 (90-95) | 9 (100)
6 | CC1CCCC(NC2CCC3(CCC(C(C)(C)C)CC3)C2)C1 (stereo not drawn) [Example 6] | 9 (100) | 6 (75-89) | 7 (90-95) | 7 (90-99) | 3 (30-44) | 5 (60-74) | 7 (90-95) | 7 (90-95) | 7 (90-99) | 0 (0) | 4 (45-59) | 4 (45-59)
7 | CC1CCC(NC2CCC3(CCC(C(C)(C)C)CC3)C2)CC1 (stereo not drawn) [Example 7] | 9 (100) | 4 (45-59) | 0 (0) | 7 (90-99) | 7 (90-95) | 3 (30-44) | 4 (45-59) | 7 (90-95) | 7 (90-99) | 0 (0) | 8 (96-99) | 7 (90-95)
8 | CC(C)CNC1CCC2(CCC(C(C)(C)C)CC2)C1 (stereo not drawn) [Example 8] | 9 (100) | 8 (96-99) | 0 (0) | 7 (90-99) | 5 (60-74) | 0 (0) | 0 (0) | 4 (45-59) | 7 (90-99) | 0 (0) | 6 (75-89) | 6 (75-89)
9 | CN(C1CCCCC1)C1CCC2(CCC(C(C)(C)C)CC2)C1 (stereo not drawn) [Example 9] | 9 (100) | 8 (96-99) | 0 (0) | 7 (90-99) | 7 (90-95) | 2 (15-29) | 0 (0) | 6 (75-89) | 7 (90-99) | 0 (0) | 4 (45-59) | 8 (96-99)
10 | CC(C)(C)C1CCC2(CCC(NC3CCCC3)C2)CC1 (stereo not drawn) [Example 10] | 9 (100) | 8 (96-99) | 0 (0) | 9 (100) | 6 (75-89) | 5 (60-74) | 2 (15-29) | 7 (90-95) | 9 (100) | 0 (0) | 6 (75-89) | 6 (75-89)
11 | CC(C)(C)C1CCC2(CCC(NC3CCCCCC3)C2)CC1 (stereo not drawn) [Example 11] | 9 (100) | 7 (90-95) | 0 (0) | 0 (0) | 6 (75-89) | 6 (75-89) | 5 (60-74) | 6 (75-89) | 9 (100) | 0 (0) | 5 (60-74) | 8 (96-99)
12 | CC(C)(C)C1CCC2(CCC(NCc3ccc(Cl)cc3)C2)CC1 (stereo not drawn) [Example 12] | 9 (100) | 7 (90-95) | 0 (0) | 0 (0) | 5 (60-74) | 0 (0) | 0 (0) | 0 (0) | 9 (100) | 0 (0) | 0 (0) | 7 (90-95)
